{"source": "paper PMC4999848", "about": "(Toxins, 2016)", "key": {"human fecal bacteria": {"tested_on": "human fecal bacteria", "test": "Deacetylation of 3/15ADON by human fecal bacteria", "type": "in vitro ADME", "settings": "for Disappearance of 3/15ADON, specific activity: fecal bacteria, anaerobic, 37 °C, substrate 100 μM; for % of deacetylation: human fecal bacteria; for Contribution to total deacetylation activity: Bacteria: percentage of sum of specific activities (Figure 8)", "procedure": "The whole procedure involving fecal bacteria (including the use of fecal bacteria for the deacetylation assay) was performed in an anaerobic cabinet (Coy Laboratory Products, Grass Lake, MI, USA). Human fecal bacteria were isolated from three volunteers (men) working in the department, 40–50 years of age. Stools were collected fresh in a sterile container and were immediately introduced into the anaerobic cabinet. Feces samples were taken by pushing a cut-off disposal 1 mL pipette tip into the inner part of the stools. Samples were then mechanically suspended in 9 mL of degassed PBS^++. Homogenates were allowed to decant for ten minutes to eliminate insoluble matter, and supernatants (1 mL aliquots) were transferred to sterile Eppendorf tubes and used for deacetylation assay.\nStock solutions of DON, 3ADON and 15ADON at 2 mg/mL were prepared in absolute ethanol and stored at −20 °C. For deacetylation assay, 3- or 15ADON were incubated with cells, explants, bacteria or digestive enzymes after being diluted in PBS^++ at a final concentration of 100 μM. PBS^++ solution containing only ethanol (at 1.5% final concentration) or DON (at 100 μM) were used in parallel as negative and positive control, respectively. For cells and explants, deacetylation assay take place in 6-well plates, wells being filled with 2 mL of PBS^++ containing either ethanol, DON, 3- or 15ADON. For fecal bacteria and digestive enzyme assay, deacetylation assay was conducted in 2 mL Eppendorf tubes filled with 1.5 mL of PBS^++ containing either ethanol, DON, 3- or 15ADON. In vitro intestinal digestion by luminal enzymes was performed using porcine enzymes from Sigma-Aldrich and physiological conditions. Briefly, 3- or 15ADON were incubated with pepsin (at 1.6 mg/mL corresponding to 900 U/mL), trypsin (at 0.35 mg/mL corresponding to 6000 U/mL), pancreatic lipase (at 0.75 mg/mL corresponding to 18 U/mL) or pancreatin (at 1.23 mg/mL, lipase activity >10 U/mL, protease activity >100 U/mL, amylase activity >100 U/mL). Except for pepsin for which the digestion was conducted in HCl solution at 10 mM (pH 2.3), in vitro digestion was performed in PBS^++ (pH 7.4). Finally, deacetylation assay was also performed with commercial pooled S9 fractions from human liver, small intestine and kidneys as well as with pure recombinant human CES1 and CES2. S9 fractions and CES1/2 were used at 0.1 mg/mL and 5 μg/mL (corresponding to CES activity >20 U/mL), respectively. In all cases, aliquots of the reaction solution were collected immediately (i.e., “time zero” sample) or after the indicated time period at 37 °C and analyzed by HPLC. […] In all cases, the experiments were conducted in triplicate (n = 3).\nDeacetylation was monitoring both in term of disappearance of 3- or 15ADON and formation of DON. Measurement of DON, 3ADON and 15ADON concentrations was performed by reversed-phase HPLC using Waters Alliance System equipped with a Waters 2690 XE separation module and a Waters 996 photodiode array detector (Waters, Saint Quentin Falavier, France). The separation was achieved by mean of a LiChroCart column (125 mm × 4 mm) packed with 5 μm RP-18 Purospher gel (Merck, Darmstadt, Germany) and equipped with a LiChroCart precolumn (4 mm × 4 mm) packed with the same material (Merck). The precolumn and column were placed in room temperature. The elution procedure was carried out at 0.7 mL·min^−1 by a methanol–water solvent, using the following conditions: 40% methanol during 2 min followed by an increase in methanol to 50% at 2.1 min."}, "recombinant human CES1": {"biological_target": "T1, recombinant human CES1 (Homo sapiens, UniProt P23141)", "T1 sequence (P23141 18-567)": "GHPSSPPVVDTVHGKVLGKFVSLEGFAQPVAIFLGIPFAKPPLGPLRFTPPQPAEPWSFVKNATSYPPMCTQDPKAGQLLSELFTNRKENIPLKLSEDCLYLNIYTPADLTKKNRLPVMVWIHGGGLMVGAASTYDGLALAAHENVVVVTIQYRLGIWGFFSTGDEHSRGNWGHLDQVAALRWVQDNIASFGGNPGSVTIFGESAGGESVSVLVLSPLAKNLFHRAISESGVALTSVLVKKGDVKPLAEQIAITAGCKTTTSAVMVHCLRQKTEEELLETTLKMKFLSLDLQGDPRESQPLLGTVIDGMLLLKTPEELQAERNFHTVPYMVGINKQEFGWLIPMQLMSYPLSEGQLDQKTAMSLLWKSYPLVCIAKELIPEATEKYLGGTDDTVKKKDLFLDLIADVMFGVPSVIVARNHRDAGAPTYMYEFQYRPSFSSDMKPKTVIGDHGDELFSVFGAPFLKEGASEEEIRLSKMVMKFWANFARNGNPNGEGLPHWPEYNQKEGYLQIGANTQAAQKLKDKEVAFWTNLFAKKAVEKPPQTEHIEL", "test": "Deacetylation of 3/15ADON by recombinant CES1", "type": "in vitro ADME", "parameters": "purchased R&D Systems", "settings": "5 μg/mL CES1, up to 24 h, data not shown", "procedure": "Stock solutions of DON, 3ADON and 15ADON at 2 mg/mL were prepared in absolute ethanol and stored at −20 °C. For deacetylation assay, 3- or 15ADON were incubated with cells, explants, bacteria or digestive enzymes after being diluted in PBS^++ at a final concentration of 100 μM. PBS^++ solution containing only ethanol (at 1.5% final concentration) or DON (at 100 μM) were used in parallel as negative and positive control, respectively. For cells and explants, deacetylation assay take place in 6-well plates, wells being filled with 2 mL of PBS^++ containing either ethanol, DON, 3- or 15ADON. For fecal bacteria and digestive enzyme assay, deacetylation assay was conducted in 2 mL Eppendorf tubes filled with 1.5 mL of PBS^++ containing either ethanol, DON, 3- or 15ADON. In vitro intestinal digestion by luminal enzymes was performed using porcine enzymes from Sigma-Aldrich and physiological conditions. […] In all cases, aliquots of the reaction solution were collected immediately (i.e., “time zero” sample) or after the indicated time period at 37 °C and analyzed by HPLC. […]\nDeacetylation was monitoring both in term of disappearance of 3- or 15ADON and formation of DON. […] Quantification was based on calibration with the corresponding standard using Millinium Software (Waters, Saint Quentin Falavier, France)."}}, "note": "Entries after “also recorded” stand apart in the source; their conditions may differ."}
{"smiles": "CC(=O)OC[C@]12[C@H](O)C(=O)C(C)=C[C@H]1O[C@@H]1[C@H](O)C[C@@]2(C)[C@]12CO2", "note": "[15ADON, 15-acetyldeoxynivalenol]", "values": [{"measurement": "Disappearance of 3/15ADON, specific activity", "setting": "human fecal bacteria", "value": "5.8 ± 1.3", "unit": "pmol/min/mg"}, {"measurement": "% of deacetylation", "setting": "human fecal bacteria; 6 h incubation, 100 μM", "value": "no activity"}, {"measurement": "% of deacetylation", "setting": "human fecal bacteria; 48 h incubation", "value": "14.9% ± 3.2%"}, {"measurement": "Contribution to total deacetylation activity: Bacteria", "setting": "human fecal bacteria", "value": 0.9, "unit": "%"}, {"measurement": "Deacetylation activity of CES1 on 3/15ADON", "setting": "recombinant human CES1", "value": "failed at observing any deacetylation activity; also recorded: unable to cause the deacetylation"}]}
{"smiles": "CC(=O)O[C@@H]1C[C@]2(C)[C@@]3(CO)[C@H](O)C(=O)C(C)=C[C@H]3O[C@H]1[C@@]21CO1", "note": "[3ADON, 3-acetyldeoxynivalenol]", "values": [{"measurement": "Disappearance of 3/15ADON, specific activity", "setting": "human fecal bacteria", "value": "34 ± 0.9", "unit": "pmol/min/mg"}, {"measurement": "% of deacetylation", "setting": "human fecal bacteria; 6 h incubation, 100 μM", "value": "22.6% ± 15.9%"}, {"measurement": "% of deacetylation", "setting": "human fecal bacteria; 48 h incubation", "value": "82.1% ± 21.9%"}, {"measurement": "Contribution to total deacetylation activity: Bacteria", "setting": "human fecal bacteria", "value": 2.6, "unit": "%"}, {"measurement": "Deacetylation activity of CES1 on 3/15ADON", "setting": "recombinant human CES1", "value": "failed at observing any deacetylation activity; also recorded: unable to cause the deacetylation"}]}
